Test results published in EPA's CvTdb concentration-time database (doi:10.1093/toxsci/kfy020).

Columns and labels:
Experiment in all cases: concentration in plasma after dosing
rat [1] = conditions: Sprague-Dawley
rat [2] = conditions: dosed: 2,4-D, 1.043 mg/kg, oral, male, Sprague-Dawley
rat [3] = conditions: dosed: 2,4-D, 0.20467 mg/kg, iv, male, Sprague-Dawley
rat [4] = conditions: dosed: 2,4-D, 1.043 mg/kg, oral, male, Sprague-Dawley; remark: listed apart in the source
rat [5] = conditions: dosed: 2,4-D, 0.20467 mg/kg, iv, male, Sprague-Dawley; remark: listed apart in the source
rat [6] = conditions: dosed: Propyzamide, 3.2120000000 mg/kg, oral, male, Sprague-Dawley
rat [7] = conditions: dosed: Propyzamide, 0.6 mg/kg, iv, male, Sprague-Dawley
rat [8] = conditions: dosed: Propyzamide, 0.6 mg/kg, iv, male, Sprague-Dawley; remark: listed apart in the source
rat [9] = conditions: dosed: Propyzamide, 3.0000000000 mg/kg, oral, male, Sprague-Dawley
rat [10] = conditions: dosed: Propyzamide, 3.0000000000 mg/kg, oral, male, Sprague-Dawley; remark: listed apart in the source
rat [11] = conditions: dosed: Propyzamide, 3.0000000000 mg/kg, oral, male, Sprague-Dawley; remark: listed apart in the source
rat [12] = conditions: dosed: Propyzamide, 3.2120000000 mg/kg, oral, male, Sprague-Dawley; remark: listed apart in the source
rat [13] = conditions: dosed: Pyrithiobac sodium, 1.037 mg/kg, oral, male, Sprague-Dawley
rat [14] = conditions: dosed: Pyrithiobac sodium, 1.037 mg/kg, oral, male, Sprague-Dawley; remark: listed apart in the source
rat [15] = conditions: dosed: Nilvadipine, 10.0000000000 mg/kg, oral, male, Sprague-Dawley
rat [16] = conditions: dosed: Imazalil, 1.0000000000 mg/kg, iv, male, Sprague-Dawley
rat [17] = conditions: dosed: Imazalil, 1.0000000000 mg/kg, iv, male, Sprague-Dawley; remark: listed apart in the source
rat [18] = conditions: dosed: Boscalid, 1.0000000000 mg/kg, iv, male, Sprague-Dawley
rat [19] = conditions: dosed: Boscalid, 5.0000000000 mg/kg, oral, male, Sprague-Dawley
rat [20] = conditions: dosed: Boscalid, 1.0000000000 mg/kg, iv, male, Sprague-Dawley; remark: listed apart in the source
rat [21] = conditions: dosed: Boscalid, 5.0000000000 mg/kg, oral, male, Sprague-Dawley; remark: listed apart in the source
rat [22] = conditions: dosed: Boscalid, 5.0000000000 mg/kg, oral, male, Sprague-Dawley; remark: listed apart in the source

O=C(O)COc1ccc(Cl)cc1Cl [2,4-D]
concentration in plasma [ng/mL], rat [1], dosed: 2,4-D, male
Conditions | 0.167 h | 0.25 h | 0.5 h | 1 h | 2 h | 4 h | 5 min | 8 h | 24 h
0.20467 mg/kg, iv | 466 | – | 192 | 71.5 | 22 | 1.84 | 710 | – | –
1.043 mg/kg, oral | – | 1030 | 1030 | 566 | 492 | 154 | – | 412 | 0.0594

concentration in plasma [ng/mL]
Conditions | 0.167 h | 0.25 h | 0.5 h | 1 h | 2 h | 4 h | 5 min | 8 h | 24 h
rat [2] | – | 1200 | 690 | 417 | 764 | 743 | – | 402 | –
rat [3] | 250 | – | 79.7 | 32.3 | 30.8 | 7.75 | 461 | – | –
rat [4] | – | 1440 | 1240 | 816 | 858 | 688 | – | 504 | 0.48
rat [5] | 616 | – | 219 | 75.8 | 9.23 | 0.324 | 911 | – | –

C#CC(C)(C)NC(=O)c1cc(Cl)cc(Cl)c1 [Propyzamide]
concentration in plasma [ng/mL]
Conditions | rat [6] | rat [7] | rat [8] | rat [9] | rat [10] | rat [11] | rat [12]
0.25 h | 217 | – | – | 62.6 | 125 | 43.1 | 228
0.5 h | 244 | 65.8 | 46.9 | 83.7 | 118 | 104 | 302
1 h | 205 | 49.6 | 23.8 | 61.9 | 90.6 | 75.4 | 262
2 h | 98.2 | 19.8 | 9.3 | 29.5 | 50.7 | 46.3 | 158
4 h | 159 | 7.8 | 1.2 | 49.3 | 17.4 | 54 | 234
5 min | – | 156 | 119 | – | – | – | –
8 h | 148 | – | 1.4 | 50.9 | 24.1 | 44.1 | 116
10 min | – | 131 | 122 | – | – | – | –
12 h | – | 0.6 | – | 6.1 | 8.2 | 8.2 | –
24 h | 2.89 | – | – | – | – | 1.5 | 3.06
48 h | 0.376 | – | – | – | – | – | 0.269
72 h | 0.0426 | – | – | – | – | – | 0.0997

rat [1], dosed: Propyzamide, male
Conditions | concentration in plasma [ng/mL]
0.25 h, 3.0000000000 mg/kg, oral | 96.6
0.25 h, 3.2120000000 mg/kg, oral | 252
0.5 h, 0.6 mg/kg, iv | 47.6
0.5 h, 3.0000000000 mg/kg, oral | 130
0.5 h, 3.2120000000 mg/kg, oral | 359
1 h, 0.6 mg/kg, iv | 15.1
1 h, 3.0000000000 mg/kg, oral | 103
1 h, 3.2120000000 mg/kg, oral | 323
2 h, 3.0000000000 mg/kg, oral | 58.4
2 h, 3.2120000000 mg/kg, oral | 153
4 h, 0.6 mg/kg, iv | 3.1
4 h, 3.0000000000 mg/kg, oral | 39.7
4 h, 3.2120000000 mg/kg, oral | 174
5 min, 0.6 mg/kg, iv | 165
8 h, 3.0000000000 mg/kg, oral | 49.7
8 h, 3.2120000000 mg/kg, oral | 83.5
10 min, 0.6 mg/kg, iv | 117
12 h, 3.0000000000 mg/kg, oral | 16.8
24 h, 3.0000000000 mg/kg, oral | 1.2
24 h, 3.2120000000 mg/kg, oral | 2.23
48 h, 3.2120000000 mg/kg, oral | 0.327
72 h, 3.2120000000 mg/kg, oral | 0.0846

COc1cc(OC)nc(Sc2cccc(Cl)c2C(=O)[O-])n1.[Na+] [Pyrithiobac sodium]
rat [1], dosed: Pyrithiobac sodium, 1.037 mg/kg, oral, male
Conditions | concentration in plasma [ng/mL]
0.25 h | 1080
0.5 h | 1060
1 h | 1190
2 h | 458
4 h | 126
8 h | 37
24 h | 0.55
72 h | 0.206

concentration in plasma [ng/mL]
Conditions | 0.25 h | 0.5 h | 1 h | 2 h | 4 h | 8 h | 24 h
rat [13] | 1400 | 1190 | 1270 | 331 | 154 | 65.6 | 1.06
rat [14] | 1380 | 1560 | 1090 | 437 | 112 | 31.9 | 0.833

COC(=O)C1=C(C#N)NC(C)=C(C(=O)OC(C)C)C1c1cccc([N+](=O)[O-])c1 (stereo not drawn) [Nilvadipine]
concentration in plasma [ng/mL], rat [1], dosed: Nilvadipine
Conditions | 0.25 h | 0.5 h | 1 h | 2 h | 4 h | 5 min | 6 h | 8 h | 10 h
0.1000000000 mg/kg, iv, female | 16 | 8 | 4.43 | 2.48 | 0.674 | 27.3 | – | – | –
0.1000000000 mg/kg, iv, male | 11.8 | 7.16 | 3.5 | 2.19 | 0.824 | 29.2 | 0.387 | – | –
10.0000000000 mg/kg, oral, male | 34.6 | 44.3 | 14.6 | 10.7 | 3.01 | – | 4.89 | 2.84 | 12.2

rat [15]
Conditions | concentration in plasma [ng/mL]
0.25 h | 271
0.5 h | 160
1 h | 75.8
2 h | 99.2
4 h | 27.8
6 h | 22.1
8 h | 15
10 h | 1.26

C=CCOC(Cn1ccnc1)c1ccc(Cl)cc1Cl (stereo not drawn) [Imazalil]
concentration in plasma [ng/mL], rat [1], dosed: Imazalil, male
Conditions | 0.25 h | 0.5 h | 1 h | 2 h | 4 h | 5 min | 10 min
1.0000000000 mg/kg, iv | – | 25.6 | 20.7 | 7.2 | 3.6 | 139 | 63.9
5.0000000000 mg/kg, oral | 9.7 | 11.4 | 7.9 | 1 | – | – | –

concentration in plasma [ng/mL]
Conditions | 0.5 h | 1 h | 2 h | 4 h | 5 min | 10 min
rat [16] | 33.3 | 22 | 6.8 | 5.3 | 162 | 71.5
rat [17] | 23.8 | 12.2 | 6.6 | 3.4 | 125 | 73.5

O=C(Nc1ccccc1-c1ccc(Cl)cc1)c1cccnc1Cl [Boscalid]
concentration in plasma [ng/mL]
Conditions | 0.25 h | 0.5 h | 1 h | 2 h | 4 h | 5 min | 8 h | 10 min | 12 h
rat [18] | – | 100 | 57.6 | 23.1 | 12.5 | 366 | 6.72 | 262 | –
rat [19] | 30.5 | 43.1 | 31.9 | 11.5 | 8.5 | – | 16.1 | – | 21.1
rat [20] | – | 146 | 71.5 | 28.4 | 10.8 | 516 | – | 325 | –
rat [21] | 16.7 | 22.5 | 28.9 | 30.9 | 20.2 | – | 22.3 | – | 10.1
rat [22] | 29.9 | 36.8 | 18.6 | 14.1 | 5.5 | – | – | – | 8.6

concentration in plasma [ng/mL], rat [1], dosed: Boscalid, male
Conditions | 0.25 h | 0.5 h | 1 h | 2 h | 4 h | 5 min | 8 h | 10 min | 12 h
1.0000000000 mg/kg, iv | – | 131 | 78 | 29.4 | 9.3 | 418 | – | 293 | –
5.0000000000 mg/kg, oral | 47.3 | 81.4 | 65.2 | 24.6 | 13.6 | – | 15.9 | – | 7.5
